From the METLIN SMRT retention time set (Domingo-Almenara et al. 2019)

Assay: gradient 5% acetonitrile 3 min, to 50% in 2 min, to 85% in 15 min, held 3 min, 100 µL/min
Conditions: column: Zorbax Extend-C18 2.1 x 50 mm; eluents: water / acetonitrile, 0.1% formic acid
In short: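 Mixtures of ~100 pure standards were chromatographed on a Zorbax Extend-C18 column (2.1 × 50 mm, 1.8 μm) at 100 μL/min using water and acetonitrile, each with 0.1% formic acid. Detection used a quadrupole time-of-flight mass spectrometer in positive and negative ionization mode, and data collection spanned 3 months. Retention time was obtained from adduct peaks picked computationally and each checked manually.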

Question: For `COc1ccc(-c2c(C)noc2NC(C)=O)cc1S(=O)(=O)N1CCc2ccccc2C1`, which RP-LC retention time is on record?
Answer: The RP-LC retention time was 807 s.

Question: For `COc1ccc(C2(C(=O)N3CCC(c4nc(CCOCC5CCCC5)no4)C3)CC2)cc1` (centres undefined), which RP-LC retention time is on record?
Answer: The RP-LC retention time was 1060 s.

Question: For `Cc1nn(-c2ccccc2)c(C)c1S(=O)(=O)N1CCC(C(=O)N2CCCCCC2)CC1`, which RP-LC retention time is on record?
Answer: Its RP-LC retention time is 912 s.

Question: With `COc1cc(C)c(C)cc1S(=O)(=O)NCC1CCN(C(=O)Oc2ccccc2)CC1` as the compound, how does the RP-LC retention time read?
Answer: Its RP-LC retention time is 964 s.

Question: With `CCOc1cccc(-c2noc(Cn3c(=O)n(Cc4ccccc4)c(=O)c4sccc43)n2)c1` as the compound, how does the RP-LC retention time read?
Answer: The RP-LC retention time was 1160 s.

Question: With `Cc1ccc(C)c(NS(=O)(=O)c2cc(-c3[nH]ncc3C(=O)N(C)C)oc2C)c1` as the compound, how does the RP-LC retention time read?
Answer: The RP-LC retention time was 700 s.

Question: For `O=C(Nc1ccccc1)N1CCN(c2cnn3c(C4CC4)nnc3c2)CC1`, which RP-LC retention time is on record?
Answer: The RP-LC retention time was 625 s.

Question: With `CC(=O)Nc1cc(C(=O)NCc2ccccc2Br)c2ccc(C)nc2c1` as the compound, how does the RP-LC retention time read?
Answer: The RP-LC retention time was 623 s.

Question: Which RP-LC retention time does the source give for `CN(C)S(=O)(=O)c1ccc(-c2nnc(C(=O)N3CCCC3)o2)cc1` here?
Answer: Its RP-LC retention time is 727 s.

Question: With `COc1ccc(C)cc1NC(=O)CCC1CCN(c2cc(NC3CC3)ncn2)CC1` as the compound, how does the RP-LC retention time read?
Answer: The RP-LC retention time was 712 s.

Question: Which RP-LC retention time does the source give for `CC1CCN(S(=O)(=O)c2ccc3c(c2)CCCC(=O)N3CC(=O)NCc2ccc(F)cc2)CC1` here?
Answer: The RP-LC retention time was 926 s.

Question: Which RP-LC retention time does the source give for `COc1ccc(OC)c(NC(=O)CN2CCc3[nH]c4c(C)ccc(C)c4c(=O)c3C2)c1` here?
Answer: Its RP-LC retention time is 693 s.

Question: For `O=C(Cn1c(C(F)(F)F)nc2cc3c(cc21)OCCO3)NCC1CCCO1` (centres undefined), which RP-LC retention time is on record?
Answer: Its RP-LC retention time is 693 s.

Question: With `Cc1ccc(NS(=O)(=O)c2cc3n(c2)CCN(CC(C)C)C3=O)cc1F` as the compound, how does the RP-LC retention time read?
Answer: The RP-LC retention time was 840 s.

Question: For `Cc1ccccc1-c1noc(-c2nn(-c3ccc(Cl)cc3)ccc2=O)n1`, which RP-LC retention time is on record?
Answer: The RP-LC retention time was 1010 s.

Question: With `COC(=O)c1ccc(Cl)cc1NC(=O)N1CCCn2nc(-c3cccnc3)cc2C1` as the compound, how does the RP-LC retention time read?
Answer: The RP-LC retention time was 758 s.

Question: With `O=C(NCc1cccc(Cl)c1)C1CC(=O)N(c2n[nH]c3cccc(F)c23)C1` (centres undefined) as the compound, how does the RP-LC retention time read?
Answer: The RP-LC retention time was 749 s.

Question: With `COc1cccc(CC(=O)N2CCC3(CC2)NC(=O)c2cc(F)ccc2N3C)c1` as the compound, how does the RP-LC retention time read?
Answer: Its RP-LC retention time is 758 s.

Question: With `COc1ccc(NC(=O)N2CCC3(CC2)NC(=O)c2cc(Cl)ccc2N3C)cc1OC` as the compound, how does the RP-LC retention time read?
Answer: The RP-LC retention time was 722 s.

Question: For `CN(CC1CCCO1)C1CCN(C(=O)C2CCN(c3ccc(-c4cccs4)nn3)CC2)CC1` (centres undefined), which RP-LC retention time is on record?
Answer: Its RP-LC retention time is 567 s.

Question: Which RP-LC retention time does the source give for `COCc1nnc(NC(=O)C2CCN(C(=O)c3ccccc3Cl)CC2)s1` here?
Answer: The RP-LC retention time was 670 s.

Question: With `O=C(Cn1c(=O)n(-c2ccc(F)cc2)c2ncccc21)NCCCN1CCOCC1` as the compound, how does the RP-LC retention time read?
Answer: The RP-LC retention time was 804 s.

Question: Which RP-LC retention time does the source give for `O=[N+]([O-])c1cccc(C2SCCN2S(=O)(=O)c2ccc(Br)cc2)c1` (centres undefined) here?
Answer: The RP-LC retention time was 1020 s.

Question: For `CN(C)C(=O)c1cc2cccc3c2n1CCS3`, which RP-LC retention time is on record?
Answer: The RP-LC retention time was 816 s.

Question: Which RP-LC retention time does the source give for `CN1C(=O)C2(CCN(C(=O)Nc3ccccc3)C2)c2ccccc21` (centres undefined) here?
Answer: The RP-LC retention time was 764 s.

Question: For `COc1ccc(OC)c(CNC(=O)C2CCCN(c3nnc4cccc(C)n34)C2)c1` (centres undefined), which RP-LC retention time is on record?
Answer: The RP-LC retention time was 672 s.

Question: For `O=C(NCc1ccc(F)c(Cl)c1)C1CCN(c2cnc3nccnc3c2)CC1`, which RP-LC retention time is on record?
Answer: Its RP-LC retention time is 757 s.

Question: Which RP-LC retention time does the source give for `Cc1nc(-c2csc(S(=O)(=O)N3CCC(C(=O)NCc4ccc(Cl)cc4)CC3)c2)no1` here?
Answer: Its RP-LC retention time is 926 s.

Question: Which RP-LC retention time does the source give for `O=C(CN1C(=O)CSc2ccc(C(=O)N3CCCCC3)cc21)NC1CCCCCC1` here?
Answer: Its RP-LC retention time is 839 s.

Question: With `Cc1ccc(CCNC(=O)c2cc3n(n2)CC(C)(C(=O)NCc2ccccc2)N(C)C3=O)cc1` (centres undefined) as the compound, how does the RP-LC retention time read?
Answer: Its RP-LC retention time is 815 s.

Question: Which RP-LC retention time does the source give for `CS(=O)(=O)Nc1ccc(C2(C(=O)N3CCN(c4ccccc4)CC3)CCCCC2)cc1` here?
Answer: Its RP-LC retention time is 674 s.

Question: Which RP-LC retention time does the source give for `CCCCN1N=C(C(=O)N2CCC(C)CC2)S(=O)(=O)c2ccccc21` here?
Answer: The RP-LC retention time was 1030 s.

Question: With `Cc1ccc(C(=O)N2CCC3(C2)C(=O)N(C)c2ccccc23)cc1F` (centres undefined) as the compound, how does the RP-LC retention time read?
Answer: The RP-LC retention time was 815 s.

Question: With `O=C(Cc1csc(NC(=O)Nc2cccc(Cl)c2)n1)Nc1ccccc1` as the compound, how does the RP-LC retention time read?
Answer: The RP-LC retention time was 924 s.

Question: For `CC(=O)Nc1ccc(OCC(O)CN2CCC(Cc3ccccc3)CC2)cc1` (centres undefined), which RP-LC retention time is on record?
Answer: The RP-LC retention time was 577 s.

Question: Which RP-LC retention time does the source give for `CCn1cc(-c2ccccc2)cc1C(=O)NCC(C)C` here?
Answer: Its RP-LC retention time is 1070 s.

Question: Which RP-LC retention time does the source give for `COc1ccc(N2CCN(C(=O)c3ccc(=O)n(CCN4CCOCC4)c3)CC2)cc1` here?
Answer: The RP-LC retention time was 578 s.

Question: With `Cc1ccc(N2N=NC3C(=O)N(c4cccc(Cl)c4)C(=O)C32)cc1F` (centres undefined) as the compound, how does the RP-LC retention time read?
Answer: Its RP-LC retention time is 1060 s.

Question: With `CCOc1cccc(-c2noc(Cn3c(=O)n(CC)c(=O)c4ccccc43)n2)c1` as the compound, how does the RP-LC retention time read?
Answer: Its RP-LC retention time is 983 s.

Question: For `COc1ccccc1-c1nnc(-c2ccc(Cl)c(S(=O)(=O)N3CCC(C)CC3)c2)o1`, which RP-LC retention time is on record?
Answer: Its RP-LC retention time is 1190 s.

Question: Which RP-LC retention time does the source give for `Cc1ccc(-n2ncc3c(NCc4ccc5c(c4)OCO5)ncnc32)cc1` here?
Answer: Its RP-LC retention time is 939 s.

Question: Which RP-LC retention time does the source give for `CCn1c(=O)c2c(cc(C)n2C)n(CC(=O)Nc2ccc(C)cc2C)c1=O` here?
Answer: Its RP-LC retention time is 812 s.

Question: For `CCNC(=O)C1CCCN(c2nc3ncn(CC(=O)Nc4ccc(F)cc4Cl)c(=O)c3s2)C1` (centres undefined), which RP-LC retention time is on record?
Answer: Its RP-LC retention time is 681 s.

Question: With `CC(C)c1ccc(-c2ccnc3c(C(=O)NCc4ccco4)cnn23)cc1` as the compound, how does the RP-LC retention time read?
Answer: The RP-LC retention time was 1090 s.
